Here are results for 34 compounds from patent US9051270B2, “Pyridone amides as modulators of sodium channels” (Vertex Pharmaceuticals Incorporated, priority 2013, dated 2015).

What is called IC50 is the concentration at which inhibition is half-maximal. High values mean weaker potency, low ones greater potency.

Tested on in one series: not listed separately
As to the kind of experiment: Microsomal stability assay, rat liver microsomes (RLM). Particulars: rat liver microsomes 0.5 mg/mL, 1 uM substrate, 2 mM NADPH, 37° C., referenced against time zero control. The class given is in vitro ADME. Here is the method: (§1) Microsomal Stability Assay.
(§2) Compounds were incubated at 37° C. and shaken for 30 minutes in a phosphate buffered solution with either rat or human liver microsomes and the cofactor NADPH. A time zero control was similarly prepared, however with NADPH excluded. The final incubation concentrations were 1 uM substrate (0.2% DMSO), 0.5 mg/mL liver microsome, 2 mM NADPH, and 0.1 M phosphate. Reactions were quenched and proteins precipitated with the addition of 2 volume equivalents of ice cold acetonitrile containing an internal standard. Following a centrifugation step, aliquots from the quenched incubations were further diluted with 4 volume equivalents of a 50% aqueous methanol solution and then subjected to LC/MS/MS analysis for quantitation of parent compound. Microsome stability values were calculated as the percent of substrate remaining after 30 minutes referenced against the time zero control.
(§3) Microsomal stability in rat and human liver microsomes were determined for selected compounds of the present invention using the above assay. Table 4 provides the human liver microsomes (“HLM”) and rat liver microsomes (“RLM”) stability data as the percent of compound remaining after 30 minutes referenced against the time zero control.
On the technique in general: Microsomes from liver hold many membrane-bound enzymes, among them those of drug oxidation.
In the case of `Cc1cc(F)ccc1Oc1cc(C(F)(F)F)ccc1C(=O)Nc1cc[nH]c(=O)c1` [Compound 10, 2-(4-fluoro-2-methylphenoxy)-N-(2-oxo-1,2-dihydropyridin-4-yl)-4-(trifluoromethyl)benzamide], the “RLM (% remaining @ 30 minutes)” value was 82%.

Tested on in the next series: not listed separately
As to the kind of experiment: Microsomal stability assay, human liver microsomes (HLM). The class given is in vitro ADME. Particulars: human liver microsomes 0.5 mg/mL, 1 uM substrate, 2 mM NADPH, 37° C., referenced against time zero control. Here is the method:
as §1, §2, §3
On to `Cc1cc(F)ccc1Oc1cc(C(F)(F)F)ccc1C(=O)Nc1cc[nH]c(=O)c1` [Compound 10, 2-(4-fluoro-2-methylphenoxy)-N-(2-oxo-1,2-dihydropyridin-4-yl)-4-(trifluoromethyl)benzamide], for which the “HLM (% remaining @ 30 minutes)” value was 93%.

A further series deals with human Nav1.8 (Homo sapiens (Human), UniProt Q9Y5Y9). The series can be described thus: E-VIPR optical membrane potential assay with electrical stimulation. The class given is cell-based. As to conditions: HEK cells expressing human Nav1.8.
human Nav1.8, sequence (Q9Y5Y9 whole entry): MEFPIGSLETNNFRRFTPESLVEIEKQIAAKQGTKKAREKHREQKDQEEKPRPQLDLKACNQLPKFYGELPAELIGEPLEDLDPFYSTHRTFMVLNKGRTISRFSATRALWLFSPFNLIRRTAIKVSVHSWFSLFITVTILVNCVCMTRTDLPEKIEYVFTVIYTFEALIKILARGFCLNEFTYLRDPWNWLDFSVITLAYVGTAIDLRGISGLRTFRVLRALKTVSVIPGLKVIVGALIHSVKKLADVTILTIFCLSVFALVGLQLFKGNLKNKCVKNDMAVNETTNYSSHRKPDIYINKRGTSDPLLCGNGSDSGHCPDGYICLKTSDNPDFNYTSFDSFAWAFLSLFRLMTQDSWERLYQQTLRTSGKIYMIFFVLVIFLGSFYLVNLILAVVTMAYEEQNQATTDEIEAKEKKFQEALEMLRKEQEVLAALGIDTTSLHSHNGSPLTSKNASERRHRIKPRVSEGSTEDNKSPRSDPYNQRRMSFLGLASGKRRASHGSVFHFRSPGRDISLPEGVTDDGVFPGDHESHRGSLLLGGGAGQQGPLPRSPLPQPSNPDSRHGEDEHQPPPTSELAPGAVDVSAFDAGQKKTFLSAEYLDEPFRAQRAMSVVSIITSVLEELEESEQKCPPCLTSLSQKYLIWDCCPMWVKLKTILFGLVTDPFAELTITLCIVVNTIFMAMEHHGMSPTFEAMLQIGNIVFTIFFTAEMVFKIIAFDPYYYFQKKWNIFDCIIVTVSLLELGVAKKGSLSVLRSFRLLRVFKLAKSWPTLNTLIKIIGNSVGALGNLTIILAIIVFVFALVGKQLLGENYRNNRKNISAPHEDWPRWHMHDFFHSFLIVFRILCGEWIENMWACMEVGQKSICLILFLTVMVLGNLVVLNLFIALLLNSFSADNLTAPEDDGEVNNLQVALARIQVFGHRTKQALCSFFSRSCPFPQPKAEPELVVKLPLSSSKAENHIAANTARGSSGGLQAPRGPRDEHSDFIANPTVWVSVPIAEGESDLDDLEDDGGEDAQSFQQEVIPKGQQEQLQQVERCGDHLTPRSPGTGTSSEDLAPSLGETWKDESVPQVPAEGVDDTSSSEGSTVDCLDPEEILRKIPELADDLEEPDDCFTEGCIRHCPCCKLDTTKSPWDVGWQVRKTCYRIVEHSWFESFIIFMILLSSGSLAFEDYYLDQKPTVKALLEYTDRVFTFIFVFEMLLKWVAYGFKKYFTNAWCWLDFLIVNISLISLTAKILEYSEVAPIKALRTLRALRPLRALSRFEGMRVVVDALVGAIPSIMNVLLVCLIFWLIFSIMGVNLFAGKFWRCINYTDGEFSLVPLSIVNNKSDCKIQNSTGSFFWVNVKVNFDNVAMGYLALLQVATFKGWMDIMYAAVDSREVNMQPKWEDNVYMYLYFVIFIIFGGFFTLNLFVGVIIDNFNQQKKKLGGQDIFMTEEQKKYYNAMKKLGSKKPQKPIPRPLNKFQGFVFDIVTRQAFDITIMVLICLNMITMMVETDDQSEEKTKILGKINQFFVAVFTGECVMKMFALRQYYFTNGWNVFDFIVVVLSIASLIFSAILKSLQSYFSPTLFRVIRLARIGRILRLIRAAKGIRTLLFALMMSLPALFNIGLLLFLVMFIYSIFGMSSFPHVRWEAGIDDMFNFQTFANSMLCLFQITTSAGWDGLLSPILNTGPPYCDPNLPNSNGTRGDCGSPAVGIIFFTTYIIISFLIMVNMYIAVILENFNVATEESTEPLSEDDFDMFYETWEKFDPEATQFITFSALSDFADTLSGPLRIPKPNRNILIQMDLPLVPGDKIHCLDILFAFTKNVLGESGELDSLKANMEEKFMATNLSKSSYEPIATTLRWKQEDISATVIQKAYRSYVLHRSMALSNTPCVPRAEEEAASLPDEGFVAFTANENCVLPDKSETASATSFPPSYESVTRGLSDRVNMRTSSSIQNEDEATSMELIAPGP
With `COc1cc(F)ccc1Oc1cc(C(F)(F)F)cc(C(F)(F)F)c1C(=O)Nc1cc[nH]c(=O)c1` [Compound 154, 2-(4-fluoro-2-methoxyphenoxy)-N-(2-oxo-1,2-dihydropyridin-4-yl)-4,6-bis(trifluoromethyl)benzamide], inhibition was half-maximal at 0.005 µM (IC50).

`Cc1ncccc1Oc1ccc(OC(F)(F)F)cc1C(=O)Nc1cc[nH]c(=O)c1` [Compound 151, 2-((2-methylpyridin-3-yl)oxy)-N-(2-oxo-1,2-dihydropyridin-4-yl)-5-(trifluoromethoxy)benzamide] gave an IC50 of 8.4 µM.

`O=C(Nc1cc[nH]c(=O)c1)c1cc(C(F)(F)F)ccc1OC1C[C@@H]2C[C@@H]2C1` (some centres unmarked) [Compound 135] registered a half-maximal inhibitory concentration (IC50) of 1.65 µM.

On to `O=C(Nc1cc[nH]c(=O)c1)c1ccc(C(F)(F)F)cc1O[C@@H]1C[C@H]2CCC1C2` [Compound 118, 2-((2R)-bicyclo[2.2.1]heptan-2-yloxy)-N-(2-oxo-1,2-dihydropyridin-4-yl)-4-(trifluoromethyl)benzamide], for which 0.765 µM corresponded to half-maximal inhibition (IC50).

Turning to `COc1cc(F)cc(Oc2ccc(C(F)(F)F)cc2C(=O)Nc2cc[nH]c(=O)c2)c1` [Compound 57, 2-(3-fluoro-5-methoxyphenoxy)-N-(2-oxo-1,2-dihydropyridin-4-yl)-5-(trifluoromethyl)benzamide], the concentration for half-maximal inhibition (IC50) was determined as 6.9 µM.

`O=C(Nc1cc[nH]c(=O)c1)c1ccccc1Oc1ccc(F)cc1` [Compound 1, 2-(4-fluorophenoxy)-N-(2-oxo-1,2-dihydropyridin-4-yl)benzamide] yielded an IC50 of 1.09 µM.

Consider `Cc1ccc(F)cc1Oc1ccc(C(F)(F)F)cc1C(=O)Nc1cc[nH]c(=O)c1` [Compound 56, 2-(5-fluoro-2-methylphenoxy)-N-(2-oxo-1,2-dihydropyridin-4-yl)-5-(trifluoromethyl)benzamide], for which the half-inhibitory concentration (IC50) is 0.069 µM.

In turn, `COc1ccc(Oc2ccc(F)cc2C(=O)Nc2cc[nH]c(=O)c2)cc1` [Compound 104, 5-fluoro-2-(4-methoxyphenoxy)-N-(2-oxo-1,2-dihydropyridin-4-yl)benzamide] had an IC50 of 1.15 µM.

`O=C(Nc1cc[nH]c(=O)c1)c1cc(F)ccc1Oc1ccc(OCC2CC2)cc1` [Compound 108, 2-(4-(cyclopropylmethoxy)phenoxy)-5-fluoro-N-(2-oxo-1,2-dihydropyridin-4-yl)benzamide] yielded an IC50 of 0.285 µM.

On to `O=C(Nc1cc[nH]c(=O)c1)c1cc(C(F)(F)F)ccc1Oc1ccc(Cl)cc1F` [Compound 51, 2-(4-chloro-2-fluorophenoxy)-N-(2-oxo-1,2-dihydropyridin-4-yl)-5-(trifluoromethyl)benzamide], for which the IC50 is 0.087 µM.

Compound `COc1ccc(Oc2ccc(C(F)(F)F)cc2C(=O)Nc2cc[nH]c(=O)c2)c(Cl)c1` [Compound 49, 2-(2-chloro-4-methoxyphenoxy)-N-(2-oxo-1,2-dihydropyridin-4-yl)-5-(trifluoromethyl)benzamide] displayed a half-maximal inhibitory concentration (IC50) of 0.024 µM.

On to `COc1cc(C)ccc1Oc1ccc(C(F)(F)F)cc1C(=O)Nc1cc[nH]c(=O)c1` [Compound 47, 2-(2-methoxy-4-methylphenoxy)-N-(2-oxo-1,2-dihydropyridin-4-yl)-5-(trifluoromethyl)benzamide], for which the IC50 came out at 0.135 µM.

In turn, `CCCOc1ccccc1Oc1ccc(C(F)(F)F)cc1C(=O)Nc1cc[nH]c(=O)c1` [Compound 62, N-(2-oxo-1,2-dihydropyridin-4-yl)-2-(2-propoxyphenoxy)-5-(trifluoromethyl)benzamide] gave an IC50 of 0.034 µM.

Consider `O=C(Nc1cc[nH]c(=O)c1)c1ccc(C(F)(F)F)cc1Oc1ccccc1` [Compound 9, N-(2-oxo-1,2-dihydropyridin-4-yl)-2-phenoxy-4-(trifluoromethyl)benzamide], for which the 50% inhibitory concentration (IC50) was 0.093 µM.

Compound `COc1cc(F)ccc1Oc1cc(C#N)ccc1C(=O)Nc1cc[nH]c(=O)c1` [Compound 22, 4-cyano-2-(4-fluoro-2-methoxyphenoxy)-N-(2-oxo-1,2-dihydropyridin-4-yl)benzamide] showed an IC50 of 0.1 µM.

Regarding `N#Cc1ccc(Oc2ccc(C(F)(F)F)cc2C(=O)Nc2cc[nH]c(=O)c2)cc1` [Compound 25, 2-(4-cyanophenoxy)-N-(2-oxo-1,2-dihydropyridin-4-yl)-5-(trifluoromethyl)benzamide], the midpoint of inhibition, the IC50, lay at 1.1 µM.

The compound `O=C(Nc1cc[nH]c(=O)c1)c1ccc(C(F)(F)F)cc1Oc1ccccc1OC(F)F` [Compound 83, 2-(2-(difluoromethoxy)phenoxy)-N-(2-oxo-1,2-dihydropyridin-4-yl)-4-(trifluoromethyl)benzamide] displayed an IC50 of 0.046 µM.

In the case of `O=C(Nc1cc[nH]c(=O)c1)c1ccc(C(F)(F)F)cc1OC1CC2CCC1C2` (centres unmarked) [Compound 127, 2-(bicyclo[2.2.1]heptan-2-yloxy)-N-(2-oxo-1,2-dihydropyridin-4-yl)-4-(trifluoromethyl)benzamide], the IC50 was found to be 1.3 µM.

`Cn1ccc(NC(=O)c2ccc(C(C)(C)C)cc2Oc2ccc(C(F)(F)F)nc2)cc1=O` [Compound 148, 4-(tert-butyl)-N-(1-methyl-2-oxo-1,2-dihydropyridin-4-yl)-2-((6-(trifluoromethyl)pyridin-3-yl)oxy)benzamide] displayed an IC50 of 0.45 µM.

`Cc1cc(F)ccc1Oc1cc(C#N)ccc1C(=O)Nc1cc[nH]c(=O)c1` [Compound 23, 4-cyano-2-(4-fluoro-2-methylphenoxy)-N-(2-oxo-1,2-dihydropyridin-4-yl)benzamide] registered an IC50 of 1.5 µM.

Consider `Cc1ncccc1Oc1cc(C(F)(F)F)ccc1C(=O)Nc1cc[nH]c(=O)c1` [Compound 147, 2-((2-methylpyridin-3-yl)oxy)-N-(2-oxo-1,2-dihydropyridin-4-yl)-4-(trifluoromethyl)benzamide], for which 3.8 µM corresponded to half-maximal inhibition (IC50).

Regarding `Cc1cccc(F)c1Oc1cc(Cl)ccc1C(=O)Nc1cc[nH]c(=O)c1` [Compound 17, 4-chloro-2-(2-fluoro-6-methylphenoxy)-N-(2-oxo-1,2-dihydropyridin-4-yl)benzamide], the IC50 was found to be 1.8 µM.

`Cc1c[nH]c(=O)cc1NC(=O)c1ccc(C(F)(F)F)cc1Oc1ccc(F)cc1C` [Compound 86, 2-(4-fluoro-2-methylphenoxy)-N-(5-methyl-2-oxo-1,2-dihydropyridin-4-yl)-4-(trifluoromethyl)benzamide]: it took 3.55 µM to reach half-maximal inhibition (IC50).

With `Cc1cc(Cl)ccc1Oc1ccc(C(F)(F)F)cc1C(=O)Nc1cc[nH]c(=O)c1` [Compound 50, 2-(4-chloro-2-methylphenoxy)-N-(2-oxo-1,2-dihydropyridin-4-yl)-5-(trifluoromethyl)benzamide], the IC50 was 0.019 µM.

Take `Cc1cccc(F)c1Oc1ccc(OC(F)(F)F)cc1C(=O)Nc1cc[nH]c(=O)c1` [Compound 39, 2-(2-fluoro-6-methylphenoxy)-N-(2-oxo-1,2-dihydropyridin-4-yl)-5-(trifluoromethoxy)benzamide]: the IC50 is 0.69 µM.

Take `O=C(Nc1cc[nH]c(=O)c1)c1ccc(C(F)(F)F)cc1Oc1ccc(Cl)cc1` [Compound 78, 2-(4-chlorophenoxy)-N-(2-oxo-1,2-dihydropyridin-4-yl)-4-(trifluoromethyl)benzamide]: it took 0.031 µM to reach half-maximal inhibition (IC50).

`COc1c(F)cccc1Oc1cc(C(F)(F)F)ccc1C(=O)Nc1cc[nH]c(=O)c1` [Compound 87, 2-(3-fluoro-2-methoxyphenoxy)-N-(2-oxo-1,2-dihydropyridin-4-yk)-4-(trifluoromethyl)benzamide] displayed an IC50 of 0.027 µM.

`O=C(Nc1cc[nH]c(=O)c1)c1ccc(C(F)(F)F)cc1Oc1ccc(C(F)(F)F)nc1` [Compound 144, N-(2-oxo-1,2-dihydropyridin-4-yl)-4-(trifluoromethyl)-2-((6-(trifluoromethyl)pyridin-3-yl)oxy)benzamide] registered an IC50 of 0.615 µM.

In turn, `O=C(Nc1cc[nH]c(=O)c1)c1cc(OC(F)(F)F)ccc1OCC1CCCC1` [Compound 136, 2-(cyclopentylmethoxy)-N-(2-oxo-1,2-dihydropyridin-4-yl)-5-(trifluoromethoxy)benzamide] gave an IC50 of 2.6 µM.

For the compound `COc1cc(F)ccc1Oc1cc(C(F)(F)F)ccc1C(=O)Nc1cc[nH]c(=O)c1` [Compound 158, 2-(4-fluoro-2-methoxyphenoxy)-N-(2-oxo-1,2-dihydropyridin-4-yl)-4-(trifluoromethyl)benzamide], the half-maximal inhibitory concentration (IC50) came out at 0.002 µM.

As for `O=C(Nc1cc[nH]c(=O)c1)c1ccc(C(F)(F)F)cc1OC1CCCCC1` [Compound 128, 2-(cyclohexyloxy)-N-(2-oxo-1,2-dihydropyridin-4-yl)-4-(trifluoromethyl)benzamide], the IC50 came out at 0.56 µM.

`O=C(Nc1cc[nH]c(=O)c1)c1cc(C(F)(F)F)ccc1Oc1c(F)cccc1F` [Compound 26, 2-(2,6-difluorophenoxy)-N-(2-oxo-1,2-dihydropyridin-4-yl)-5-(trifluoromethyl)benzamide] showed a half-inhibitory concentration (IC50) of 9.65 µM.

The compound `CC1(C)CC1COc1ccc(C(F)(F)F)cc1C(=O)Nc1cc[nH]c(=O)c1` (centres unmarked) [Compound 134, 2-((2,2-dimethylcyclopropyl)methoxy)-N-(2-oxo-1,2-dihydropyridin-4-yl)-5-(trifluoromethyl)benzamide] displayed a 50% inhibitory concentration (IC50) of 21 µM.
